Measurements reported in ChEMBL document CHEMBL1201862, “PubChem BioAssay data set” (2004).
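Cultured in 96-well plates, cells were exposed to test compound for 48 hours across five concentrations. GI50 = concentration required for 50% inhibition of growth.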 The source made the active and inactive calls. Cut-off read from the data, not from the text of the source: active = GI50 up to about 1.1 µM and inactive = higher.

What was measured:
Experiment in all cases: NCI-60 cell line screen, 48 h
A549 = system: A549
Malme-3M = system: Malme-3M
HOP-62 = system: HOP-62
SN12C = system: SN12C
UO-31 = system: UO-31
ACHN = system: ACHN
SK-MEL-28 = system: SK-MEL-28
M14 = system: M14
SNB-19 = system: SNB-19
SNB-75 = system: SNB-75
NCI/ADR-RES = system: NCI/ADR-RES
SR = system: SR
OVCAR-8 = system: OVCAR-8
PC-3 = system: PC-3
A498 = system: A498
HCT-116 = system: HCT-116
CAKI-1 = system: CAKI-1
HOP-92 = system: HOP-92
SF-268 = system: SF-268
LOX IMVI = system: LOX IMVI

O=S(=O)(O)c1cc(S(=O)(=O)O)c2c(/N=N/c3cccc4ccccc34)c(O)ccc2c1
GI50 (A549): > 100 µM (inactive)
GI50 (Malme-3M): > 100 µM (inactive)
GI50 (HOP-62): > 100 µM (inactive)
GI50 (SN12C): > 100 µM (inactive)
GI50 (UO-31): > 100 µM (inactive)
GI50 (ACHN): > 100 µM (inactive)
GI50 (SK-MEL-28): > 100 µM (inactive)
GI50 (M14): > 100 µM (inactive)
GI50 (SNB-19): > 100 µM (inactive)
GI50 (SNB-75): > 100 µM (inactive)
GI50 (NCI/ADR-RES): > 100 µM (inactive)
GI50 (SR): > 100 µM (inactive)
GI50 (OVCAR-8): > 100 µM (inactive)
GI50 (PC-3): > 100 µM (inactive)
GI50 (A498): > 100 µM (inactive)
GI50 (HCT-116): > 100 µM (inactive)
GI50 (CAKI-1): > 100 µM (inactive)
GI50 (HOP-92): > 100 µM (inactive)
GI50 (SF-268): > 100 µM (inactive)
GI50 (LOX IMVI): > 100 µM (inactive)

Clc1ncnc2c1nc(C#Cc1ccccc1)n2Cc1ccccc1
GI50 (A549): 84.9 µM (inactive)
GI50 (Malme-3M): > 100 µM (inactive)
GI50 (HOP-62): 24.7 µM (inactive)
GI50 (SN12C): 18.8 µM (inactive)
GI50 (UO-31): 2.14 µM (inactive)
GI50 (ACHN): 65.2 µM (inactive)
GI50 (SK-MEL-28): 18.8 µM (inactive)
GI50 (M14): 19.1 µM (inactive)
GI50 (SNB-19): 29.9 µM (inactive)
GI50 (SNB-75): 25.8 µM (inactive)
GI50 (NCI/ADR-RES): 60 µM (inactive)
GI50 (SR): 3.08 µM (inactive)
GI50 (OVCAR-8): 12.7 µM (inactive)
GI50 (PC-3): 40.6 µM (inactive)
GI50 (A498): > 100 µM (inactive)
GI50 (HCT-116): 34 µM (inactive)
GI50 (CAKI-1): 18.2 µM (inactive)
GI50 (HOP-92): 27.1 µM (inactive)
GI50 (SF-268): 40.9 µM (inactive)
GI50 (LOX IMVI): 11.2 µM (inactive)

NCCCN1CCN(c2ccccc2)CC1
GI50 (A549): > 100 µM (inactive)
GI50 (Malme-3M): > 100 µM (inactive)
GI50 (HOP-62): 10.9 µM (inactive)
GI50 (SN12C): > 100 µM (inactive)
GI50 (UO-31): > 100 µM (inactive)
GI50 (ACHN): > 100 µM (inactive)
GI50 (SK-MEL-28): > 100 µM (inactive)
GI50 (M14): 35.3 µM (inactive)
GI50 (SNB-19): > 100 µM (inactive)
GI50 (SNB-75): > 100 µM (inactive)
GI50 (NCI/ADR-RES): > 100 µM (inactive)
GI50 (SR): 34.3 µM (inactive)
GI50 (OVCAR-8): > 100 µM (inactive)
GI50 (PC-3): 33.4 µM (inactive)
GI50 (A498): > 100 µM (inactive)
GI50 (HCT-116): > 100 µM (inactive)
GI50 (CAKI-1): > 100 µM (inactive)
GI50 (HOP-92): 86.3 µM (inactive)
GI50 (SF-268): > 100 µM (inactive)
GI50 (LOX IMVI): > 100 µM (inactive)

c1ccc2c(-c3csc(-c4c[nH]c5ccccc45)n3)c[nH]c2c1
GI50 (A549): 96.8 µM (inactive)
GI50 (Malme-3M): > 100 µM (inactive)
GI50 (HOP-62): 56.4 µM (inactive)
GI50 (SN12C): > 100 µM (inactive)
GI50 (UO-31): > 48.1 µM (inactive)
GI50 (ACHN): > 100 µM (inactive)
GI50 (SK-MEL-28): > 100 µM (inactive)
GI50 (M14): > 100 µM (inactive)
GI50 (SNB-19): > 89.7 µM (inactive)
GI50 (SNB-75): > 22.4 µM (inactive)
GI50 (NCI/ADR-RES): > 100 µM (inactive)
GI50 (SR): 2.93 µM (inactive)
GI50 (OVCAR-8): > 100 µM (inactive)
GI50 (PC-3): > 100 µM (inactive)
GI50 (A498): > 100 µM (inactive)
GI50 (HCT-116): > 48.8 µM (inactive)
GI50 (CAKI-1): > 100 µM (inactive)
GI50 (HOP-92): > 100 µM (inactive)
GI50 (SF-268): > 100 µM (inactive)
GI50 (LOX IMVI): 21.8 µM (inactive)

COc1ccc2sc(-n3nc4ccccc4c3Nc3nc4ccc(OC)cc4s3)nc2c1
GI50 (A549): 3.77 µM (inactive)
GI50 (Malme-3M): 3.8 µM (inactive)
GI50 (HOP-62): 1.79 µM (inactive)
GI50 (SN12C): 3.07 µM (inactive)
GI50 (UO-31): 7.16 µM (inactive)
GI50 (ACHN): 2.6 µM (inactive)
GI50 (SK-MEL-28): 7.67 µM (inactive)
GI50 (M14): 7.24 µM (inactive)
GI50 (SNB-19): 2.33 µM (inactive)
GI50 (SNB-75): 3 µM (inactive)
GI50 (NCI/ADR-RES): 2.26 µM (inactive)
GI50 (SR): 23.4 µM (inactive)
GI50 (OVCAR-8): 1.29 µM (inactive)
GI50 (PC-3): 2.89 µM (inactive)
GI50 (A498): 0.873 µM (active)
GI50 (HCT-116): 1.8 µM (inactive)
GI50 (CAKI-1): 1.28 µM (inactive)
GI50 (HOP-92): 3.12 µM (inactive)
GI50 (SF-268): 5.01 µM (inactive)
GI50 (LOX IMVI): 5.47 µM (inactive)

CC(C)NC(=O)OCc1c(COC(=O)NC(C)C)n(C)c2c1ccc1ccsc12
GI50 (A549): 9.98 µM (inactive)
GI50 (Malme-3M): 4.36 µM (inactive)
GI50 (HOP-62): 12.7 µM (inactive)
GI50 (SN12C): 5.66 µM (inactive)
GI50 (UO-31): 7.1 µM (inactive)
GI50 (ACHN): 3.05 µM (inactive)
GI50 (SK-MEL-28): 12.6 µM (inactive)
GI50 (M14): 8.3 µM (inactive)
GI50 (SNB-19): 10.8 µM (inactive)
GI50 (SNB-75): 6.78 µM (inactive)
GI50 (NCI/ADR-RES): 6.75 µM (inactive)
GI50 (SR): 2.37 µM (inactive)
GI50 (OVCAR-8): 9.59 µM (inactive)
GI50 (PC-3): 15.3 µM (inactive)
GI50 (A498): 9.73 µM (inactive)
GI50 (HCT-116): 9.84 µM (inactive)
GI50 (CAKI-1): 1.81 µM (inactive)
GI50 (HOP-92): 10.1 µM (inactive)
GI50 (SF-268): 4.38 µM (inactive)
GI50 (LOX IMVI): 5.57 µM (inactive)

Cc1cc(C)n(CC(Cn2nc(C)cc2C)=C(/C(Cl)=C(/Cl)Nc2ccc([N+](=O)[O-])cc2)[N+](=O)[O-])n1
GI50 (A549): 3.43 µM (inactive)
GI50 (Malme-3M): 3.61 µM (inactive)
GI50 (HOP-62): 4.46 µM (inactive)
GI50 (SN12C): 3.82 µM (inactive)
GI50 (UO-31): 2.74 µM (inactive)
GI50 (ACHN): 3.25 µM (inactive)
GI50 (SK-MEL-28): 7.06 µM (inactive)
GI50 (M14): 4.37 µM (inactive)
GI50 (SNB-19): 4.49 µM (inactive)
GI50 (SNB-75): 4.67 µM (inactive)
GI50 (NCI/ADR-RES): 8.07 µM (inactive)
GI50 (SR): 2.48 µM (inactive)
GI50 (OVCAR-8): 3.35 µM (inactive)
GI50 (PC-3): 3.42 µM (inactive)
GI50 (A498): 3.37 µM (inactive)
GI50 (HCT-116): 3.7 µM (inactive)
GI50 (CAKI-1): 1.81 µM (inactive)
GI50 (HOP-92): 2.47 µM (inactive)
GI50 (SF-268): 5.01 µM (inactive)
GI50 (LOX IMVI): 2.3 µM (inactive)

CC(C)(C)N1CSC(=S)N(Cc2ccco2)C1
GI50 (A549): 5.4 µM (inactive)
GI50 (Malme-3M): 4.16 µM (inactive)
GI50 (HOP-62): 4.8 µM (inactive)
GI50 (SN12C): 4.35 µM (inactive)
GI50 (UO-31): 2.38 µM (inactive)
GI50 (ACHN): 3.27 µM (inactive)
GI50 (SK-MEL-28): 2.4 µM (inactive)
GI50 (M14): 2.46 µM (inactive)
GI50 (SNB-19): 3.91 µM (inactive)
GI50 (SNB-75): 12.8 µM (inactive)
GI50 (NCI/ADR-RES): 4.11 µM (inactive)
GI50 (SR): 0.555 µM (active)
GI50 (OVCAR-8): 2.12 µM (inactive)
GI50 (PC-3): 3.35 µM (inactive)
GI50 (A498): 13.3 µM (inactive)
GI50 (HCT-116): 3.81 µM (inactive)
GI50 (CAKI-1): 2.83 µM (inactive)
GI50 (HOP-92): 1.55 µM (inactive)
GI50 (SF-268): 3.93 µM (inactive)
GI50 (LOX IMVI): 3.05 µM (inactive)

Clc1ccccc1NN(Cc1ccccn1)c1ccccc1Cl
GI50 (A549): 16.7 µM (inactive)
GI50 (Malme-3M): 19 µM (inactive)
GI50 (HOP-62): 17.9 µM (inactive)
GI50 (SN12C): 18.8 µM (inactive)
GI50 (UO-31): 20.4 µM (inactive)
GI50 (ACHN): 33.9 µM (inactive)
GI50 (SK-MEL-28): 20.5 µM (inactive)
GI50 (M14): 18.5 µM (inactive)
GI50 (SNB-19): 27.9 µM (inactive)
GI50 (SNB-75): 20.1 µM (inactive)
GI50 (NCI/ADR-RES): 16.7 µM (inactive)
GI50 (SR): 13.4 µM (inactive)
GI50 (OVCAR-8): 21.2 µM (inactive)
GI50 (PC-3): 29.2 µM (inactive)
GI50 (A498): 20.5 µM (inactive)
GI50 (HCT-116): 14 µM (inactive)
GI50 (CAKI-1): 54.3 µM (inactive)
GI50 (HOP-92): 16.1 µM (inactive)
GI50 (SF-268): 22.7 µM (inactive)
GI50 (LOX IMVI): 18.6 µM (inactive)

O=C1C(c2c(O)[nH]c3ccc(I)cc23)=Nc2ccccc21
GI50 (A549): 3.84 µM (inactive)
GI50 (Malme-3M): 8.17 µM (inactive)
GI50 (HOP-62): 4.7 µM (inactive)
GI50 (SN12C): 9.25 µM (inactive)
GI50 (UO-31): 4.02 µM (inactive)
GI50 (ACHN): 3.23 µM (inactive)
GI50 (SK-MEL-28): 11.2 µM (inactive)
GI50 (M14): 14 µM (inactive)
GI50 (SNB-19): 4.95 µM (inactive)
GI50 (SNB-75): 4.23 µM (inactive)
GI50 (NCI/ADR-RES): 6 µM (inactive)
GI50 (SR): 10.8 µM (inactive)
GI50 (OVCAR-8): 2.15 µM (inactive)
GI50 (PC-3): 2.94 µM (inactive)
GI50 (A498): 1.9 µM (inactive)
GI50 (HCT-116): 1.67 µM (inactive)
GI50 (CAKI-1): 7.06 µM (inactive)
GI50 (HOP-92): 3.24 µM (inactive)
GI50 (SF-268): 4.07 µM (inactive)
GI50 (LOX IMVI): 4.88 µM (inactive)

Cc1cc2nc(O)c(C(C)C(=O)c3ccc(Cl)cc3)nc2cc1C (stereo not given)
GI50 (A549): 39.8 µM (inactive)
GI50 (Malme-3M): 71.6 µM (inactive)
GI50 (HOP-62): 49.8 µM (inactive)
GI50 (SN12C): 50.7 µM (inactive)
GI50 (UO-31): 46.9 µM (inactive)
GI50 (ACHN): 54.1 µM (inactive)
GI50 (SK-MEL-28): 50.8 µM (inactive)
GI50 (M14): 45.6 µM (inactive)
GI50 (SNB-19): 56.4 µM (inactive)
GI50 (SNB-75): 35.4 µM (inactive)
GI50 (NCI/ADR-RES): 28.6 µM (inactive)
GI50 (SR): 22.2 µM (inactive)
GI50 (OVCAR-8): 32.5 µM (inactive)
GI50 (PC-3): 31 µM (inactive)
GI50 (A498): 23.1 µM (inactive)
GI50 (HCT-116): 33.6 µM (inactive)
GI50 (CAKI-1): 81.7 µM (inactive)
GI50 (HOP-92): 59.3 µM (inactive)
GI50 (SF-268): 47.5 µM (inactive)
GI50 (LOX IMVI): 35.6 µM (inactive)
